Experimental data taken from article PMC10221320.
Positions of bridges follow the written chain, without caps; N, C: chain ends. No end group written: not given here.

Assays:
CD-1 mice [1] = assay: Nociceptive reaction to direct hind paw pad injection; assay type: in vivo, mouse; details: 1 mg/kg in the hind paw pad; 15 min
Method: (§1) The animal studies were performed under the European Commission’s legislation (Directives 86/609/EEC, 2010/63/EU), the National Standard of the Russian Federation “Good Laboratory Practice” (GOST P 53434-2009, Moscow, Russia), and Committee on Ethics of Laboratory Animal Handling № 05/21, 20 September 2021 and 08/21, 30 December 2021 protocols (PIBOC FEB RAS). Adult female CD-1 mice weighing 25 ± 2 g were subjected to a 12 h light–dark cycle at room temperature and with ad libitum access to food and water. There were seven or eight individuals in each group.
For a direct Hmg 1b-4 injection (to eliminate the nociceptive reaction of potentiator of ASIC3 channels), it was dissolved in saline and administered at a dose of 1 mg/kg in the hind paw pad. The control group was injected with an identical volume (20 µL) of saline. The animals were placed individually, and a nociceptive reaction was registered for 15 min.

CD-1 mice [2] = assay: Acute toxicity, intravenous; assay type: in vivo, mouse; details: 1 mg/kg i.v., single; 24 h observation
Method: as §1
Lyophilized peptides were dissolved in 0.9% NaCl solution (saline) and administered once intravenously at doses of 1 mg/kg; the control group received saline (10 mL/kg or 250 µL/mouse). Then, alterations in physiological parameters, such as motility, behavioral responses and physical activity, were registered in each of the animal groups over 24 h.

[3] = intraperitoneal administration; ref [40]; cited from earlier work
rat ASIC1a (rASIC1a) = system: rat ASIC1a (rASIC1a); set-up: method as in PMID 29684594, PMID 32326130; details: ref [40],[41]; read-out: IC50, inhibition of rASIC1a; cited from earlier work
CD-1 mice [4] = assay: Open field test; assay type: in vivo, mouse; details: for N (c.z.), number of visits to central zone / N (def), number of bowel movements / N (peeps), number of peeps into minks / N (racks), vertical activity / N (s.p.), number of visits to side platform / S (act), distance traveled during activity / S, distance traveled / T (act), activity time / T (b.z.), staying on the border zone / T (c.z.), time spent on the central zone / T (e.c.z.), time of exit from the central zone / T (pass), passivity time / V(act), average movement speed during activity / V, average travel speed: mean ± SD
Method: as §1
The animal activity and anxiety-related and exploratory behaviors were estimated at the open field facility (OpenScience, Krasnogorsk, Russia). Three groups of animals were treated with peptides at doses of 0.01, 0.1 and 1 mg/kg (intravenously) 30 min before testing. The control group was injected with an identical volume (50 µL) of saline. The animals were placed in the center of the lightened arena, and the recording lasted 3 min. Using the software “Minotaur” (LLC “Neurobiotics”, Zelenograd, Russia), 14 parameters were estimated: time (T) of activity (act); passivity (pass); spent on the central zone (c.z.), staying on the border zone (b.z.); exit from the central zone (e.c.z.); average travel speed (V, m/s); average movement speed during activity (V(act)); distance traveled (S, m); distance traveled during activity (S (act)); number (N) of visits to central zone (c.z.); visits to side platform (s.p.); vertical activity (racks); peeps into minks (peeps); and bowel movements (def).

CD-1 mice [5] = assay: Carrageenan-induced paw edema; assay type: in vivo, mouse
Method: as §1
Three groups of animals were treated with peptides at doses of 0.01, 0.1 and 1 mg/kg (intravenously) 30 min before the induction of inflammation. The control animal group received an identical volume of saline. The positive control group received diclofenac (Hemofarm A.D., Vršac, Serbia) at a dose of 1 mg/kg. The edema was induced by a 20 µL injection of 1.5% solution of λ-carrageenan (Sigma Aldrich, St. Louis, MO, USA) in the hind paw pad. The resulting edema was measured after 1, 2, 4 and 24 h using a plethysmometer (Ugo Basile, Gemonio (VA), Italy). The anti-inflammatory threshold was estimated as a decrease in the paw volume and volume growth index (%), calculated using the formula: Volume Growth Index (%) = [(VC − Vi)/Vi] × 100, (1), where VC is the volume of the paw after the introduction of carrageenan and Vi is the volume of the paw before the introduction of carrageenan.

[6] = 0.01 mg/kg i.v. 30 min before testing, n = 7–8
[7] = 0.1 mg/kg i.v. 30 min before testing, n = 7–8
[8] = 1 mg/kg i.v. 30 min before testing, n = 7–8

GTPCDCYGYTGVYWFMLSRCPSGYGYNLSCHYFMGICCVKR (disulfide 4-37, 6-30, 20-38 (inferred)) [Hmg 1b-4]
nociceptive reaction (CD-1 mice [1]): did not induce a nociceptive reaction
toxicity symptoms (CD-1 mice [2]): did not cause the symptoms of neurotoxicity or obvious changes in the behavior of animals
maximal nontoxic dose [3]: 10 mg/kg
IC50 (rat ASIC1a (rASIC1a)): 1250 nM
N (c.z.), number of visits to central zone (CD-1 mice [4]; [6]): 12 ± 0.8
N (def), number of bowel movements (CD-1 mice [4]; [6]): 1.2 ± 0.2
N (peeps), number of peeps into minks (CD-1 mice [4]; [6]): 8.0 ± 0.5
N (racks), vertical activity (CD-1 mice [4]; [6]): 27.2 ± 1.9
N (s.p.), number of visits to side platform (CD-1 mice [4]; [6]): 13.3 ± 1.1
S (act), distance traveled during activity (CD-1 mice [4]; [6]): 25.0 ± 2.4 m
S, distance traveled (CD-1 mice [4]; [6]): 25.0 ± 1.8 m
T (act), activity time (CD-1 mice [4]; [6]): 113.5 ± 9.5 s
T (b.z.), staying on the border zone (CD-1 mice [4]; [6]): 145.4 ± 5.2 s
T (c.z.), time spent on the central zone (CD-1 mice [4]; [6]): 34.2 ± 2.8 s
T (e.c.z.), time of exit from the central zone (CD-1 mice [4]; [6]): 6.5 ± 3.1 s
T (pass), passivity time (CD-1 mice [4]; [6]): 64.2 ± 7.4 s
V(act), average movement speed during activity (CD-1 mice [4]; [6]): 0.22 ± 0.02 m/s
V, average travel speed (CD-1 mice [4]; [6]): 0.14 ± 0.02 m/s
N (c.z.), number of visits to central zone (CD-1 mice [4]; [7]): 21.2 ± 6.1
N (def), number of bowel movements (CD-1 mice [4]; [7]): 0
N (peeps), number of peeps into minks (CD-1 mice [4]; [7]): 7.8 ± 2.1
N (racks), vertical activity (CD-1 mice [4]; [7]): 37.0 ± 7.8
N (s.p.), number of visits to side platform (CD-1 mice [4]; [7]): 20.1 ± 6.4
S (act), distance traveled during activity (CD-1 mice [4]; [7]): 24.2 ± 5.1 m
S, distance traveled (CD-1 mice [4]; [7]): 24.2 ± 5.1 m
T (b.z.), staying on the border zone (CD-1 mice [4]; [7]): 127.5 ± 10.0 s
T (c.z.), time spent on the central zone (CD-1 mice [4]; [7]): 53.8 ± 10.3 s
T (e.c.z.), time of exit from the central zone (CD-1 mice [4]; [7]): 6.1 ± 3.3 s
T (pass), passivity time (CD-1 mice [4]; [7]): 55.1 ± 11.1 s
V(act), average movement speed during activity (CD-1 mice [4]; [7]): 0.22 ± 0.03 m/s
V, average travel speed (CD-1 mice [4]; [7]): 0.14 ± 0.03 m/s
T (act), activity time (CD-1 mice [4]; 0.1 mg/kg i.v. 30 min before testing, n = 7–8 (SD on next line: Hmg 1b-2 10.7, Hmg 1b-4 13.1)): 122.3 s
time spent in the center of the arena (CD-1 mice [4]; 0.1 mg/kg i.v., vs control): increased the time the animals spent in the center of the arena
N (c.z.), number of visits to central zone (CD-1 mice [4]; [8]): 16.8 ± 2.7
N (def), number of bowel movements (CD-1 mice [4]; [8]): 0.5 ± 0.7
N (peeps), number of peeps into minks (CD-1 mice [4]; [8]): 9.0 ± 1.5
N (racks), vertical activity (CD-1 mice [4]; [8]): 37.4 ± 3.9
N (s.p.), number of visits to side platform (CD-1 mice [4]; [8]): 16.9 ± 2.8
S (act), distance traveled during activity (CD-1 mice [4]; [8]): 24.6 ± 7.5 m
S, distance traveled (CD-1 mice [4]; [8]): 24.6 ± 2.3 m
T (b.z.), staying on the border zone (CD-1 mice [4]; [8]): 143.8 ± 8.2 s
T (c.z.), time spent on the central zone (CD-1 mice [4]; [8]): 34.9 ± 5.9 s
T (e.c.z.), time of exit from the central zone (CD-1 mice [4]; [8]): 6.4 ± 2.4 s
T (pass), passivity time (CD-1 mice [4]; [8]): 56.8 ± 9.1 s
V(act), average movement speed during activity (CD-1 mice [4]; [8]): 0.21 ± 0.02 m/s
V, average travel speed (CD-1 mice [4]; [8]): 0.14 ± 0.01 m/s
T (act), activity time (CD-1 mice [4]; 1 mg/kg i.v. 30 min before testing, n = 7–8 (SD on next line: Hmg 1b-4 10.4)): 119.9 s
number of vertical stances (CD-1 mice [4]; 0.1 and 1 mg/kg i.v., vs control): increased
conclusion on CNS effect (CD-1 mice [4]; i.v.): anxiolytic effect
effect on distance travelled and speed of movement (CD-1 mice [4]; i.v.): did not affect these options
exploration activity (number of peeps into the holes) (CD-1 mice [4]; i.v.): significantly increased the exploration activity of mice
most effective dose on peeps into the holes (CD-1 mice [4]; i.v.): 1 mg/kg
percentage of the activity time (CD-1 mice [4]; i.v., control group 50%, significant increase): 70%
reduction of volume of paw edema vs control (CD-1 mice [5]; 0.01 mg/kg i.v., only after 24 h): 1.5 times
paw volume relative to original values (CD-1 mice [5]; 0.1 mg/kg i.v., 24 h): reduced the volume of the paw almost to the original values
reduction of paw edema (CD-1 mice [5]; 0.1 mg/kg i.v., after 24 h): ~4 times
reduction of paw edema (CD-1 mice [5]; 1 mg/kg i.v., after 24 h): approximately 2 times
anti-inflammatory effect (CD-1 mice [5]; 0.1 and 1 mg/kg i.v., after 2, 4 and 24 h): statistically significant anti-inflammatory effect
effect compared with diclofenac (CD-1 mice [5]; 1 and 0.1 mg/kg i.v. at 24 h): exceeded the effect of diclofenac
reduction of paw edema (CD-1 mice [5]; 1 and 0.1 mg/kg i.v., after 4 h): 1.5 times
paw volume and growth index of edema (CD-1 mice [5]; i.v., at 1 and 2 h): decreased slightly
